{"source": "patent US20100227840A1", "about": "“USE OF 25-HYDROXY VITAMIN D3 TO IMPROVE MALE ANIMAL FERTILITY” (priority 2005, published 2010)", "key": {"boars": {"test_system": "boars", "assay": "administration of 25-hydroxy vitamin D3 to boars: quality of semen", "format": "in vivo, pig", "conditions": "administered to boars"}, "pigs": {"test_system": "pigs", "assay": "conception rate of pigs fertilized by boars administered 25-hydroxy vitamin D3", "format": "in vivo, pig", "conditions": "pigs fertilized by boars that were administered 25-hydroxy vitamin D3"}}}
{"smiles": "C=C1CC[C@H](O)C/C1=C/C=C1\\CCC[C@]2(C)[C@@H]([C@H](C)CCCC(C)(C)O)CC[C@@H]12", "note": "[25-hydroxy vitamin D3]", "values": [{"measurement": "quality of boar semen", "setting": "boars", "result": "improves the quality of boar semen"}, {"measurement": "conception rate in pigs", "setting": "pigs", "result": "increases the conception rate in pigs"}]}
